IC50 data for 1 compound are collected here from patent US12152038B2, “Vasopressin receptor antagonists and products and methods related thereto” (Neumora Therapeutics, Inc., priority 2017, dated 2024).

The test addresses T1, V1a receptors (Rattus norvegicus, UniProt P30560).
T1 construct: Rat choroid plexus (RCP) cell lines express functional V1a receptors; endogenous in cells; host or cells: rat choroid plexus (RCP) cell line, RCP P9(18)
In words: AVP induced phospho-ERK measurement in rat choroid plexus (RCP) cells. The conditions noted are these: RCP cells stimulated with AVP, pERK1/2 to total ERK1/2 ratio. Format: cell-based. The protocol:
Rat choroid plexus (RCP) cell lines express functional V1a receptors measured by increased calcium concentrations in response to V1a receptor agonists (Battle et al., Biochem. Biophys. Res. Comm. 2000).
RCP P9(18) cells were seeded 30K/well, in 100 μl growth medium containing 10% FBS in polystyrene 96-well plates and incubated at 37° C., 5% CO2 and incubated overnight. The following day, the growth medium was replaced with 50 μl pre-warmed HBSS containing 20 mM HEPES and the cells were incubated at 37° C., 5% CO2 for 1.5 hrs. 1 mM AVP (Sigma V9879) was freshly prepared in distilled water in a glass vial and diluted to 3× concentrations in HBSS containing 20 mM HEPES and 0.1% BSA in glass vials and kept on ice. […] Final concentrations of AVP: 10, 100 or 1000 nM. […] Cells were lysed with 25 μl 4×CST lysis buffer containing protease and phosphatase inhibitors, PMSF and SDS and then stored at −80° C., for 48 h. The lysates were thawed, centrifuged at 2000 g for 30 min at 4° C. and 40 μl supernatants assayed for pERK1/2 (Thr202/Tyr204; Thr185/Tyr187) and total ERK1/2 using MSD kit K15107D. The MSD ECL data for the lysates were corrected for no cell blanks, then phospho-protein levels expressed as a ratio to the total ERK1/2 level. The ratios were expressed as fold-change from the vehicle-treated control at each timepoint.

The term IC50 denotes the concentration that gives 50% inhibition.

Structures are written as SMILES.

T1 sequence (P30560 whole entry): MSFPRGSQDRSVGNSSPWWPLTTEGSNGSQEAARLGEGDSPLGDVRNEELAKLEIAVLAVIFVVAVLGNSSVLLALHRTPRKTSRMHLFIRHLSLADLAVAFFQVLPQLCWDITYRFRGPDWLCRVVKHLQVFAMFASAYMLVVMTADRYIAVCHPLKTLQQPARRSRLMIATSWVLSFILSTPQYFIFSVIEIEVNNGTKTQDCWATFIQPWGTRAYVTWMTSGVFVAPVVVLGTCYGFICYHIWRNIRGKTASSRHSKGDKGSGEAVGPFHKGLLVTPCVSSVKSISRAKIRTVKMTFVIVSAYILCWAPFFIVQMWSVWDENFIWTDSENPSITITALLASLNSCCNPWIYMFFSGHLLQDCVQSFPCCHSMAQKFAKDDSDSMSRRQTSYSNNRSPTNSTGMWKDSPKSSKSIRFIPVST

Regarding `CC1COc2cc(Cl)ccc2N1C(=O)N1CC2(C1)CN(c1ncccn1)C2` (single isomer, unassigned) [1-83-B, (7-chloro-3-methyl-2,3-dihydro-4H-benzo[b][1,4]oxazin-4-yl)(6-(pyrimidin-2-yl)-2,6-diazaspiro[3.3]heptan-2-yl)methanone], the concentration for half-maximal inhibition (IC50) (first study) was 16 nM and the 50% inhibitory concentration (IC50) (second study) came to 20 nM.
